Measurements reported in US12472204B2, “Compound of element acid, which is in allotropic form, which enters into cellular interaction in some bone diseases” (CELAL BAYAR UNIVERSITESI DIGER MERKEZLER MUDURLUGU, priority 2020, dated 2025).

Columns and labels:
[1] = tested on: osteoblast cells where ageing model is formed by hydroxy-urea
Description: (§1) The 2nd group has been determined as the boric acid group by adding 0.1 mM boric acid into the osteoblast culture medium. The 3rd group is the ageing group and has been cultured with 1 mM hydroxy-urea to the osteoblast culture medium and has been determined as the experimental brittle bone disease group. The 4th group has been determined as the group where boric acid is applied to the osteogenesis imperfecta model by applying […] boric acid to the cells where ageing model has been formed. Boric acid has been applied to 2nd and 4th groups for 72 hours and group 1 and group 3 have been cultured in their own culture media at the same durations.

[2] = tested on: osteoblast cells where hydroxy-urea is applied (in-vitro brittle bone disease model)
Description: as §1

[3] = after applying boric acid, hydroxy-urea ageing model
[4] = 4th group: osteoblast + 1 mM hydroxy-urea + boric acid, 72 hours

For `OB(O)O` [boric acid, Boric acid], the cellular morphology [1, 3] was “improved”, the “immuno-reactivity of osteocalcin released by osteoblasts” value [1, 3] was “increases” and the “immuno-reactivity of osteonectin released by osteoblasts” value [1, 3] was “increases”. For the same compound, the “proliferation in cells where ageing model is formed by hydroxy-urea” value ([1]; concluded from Ki-67 immuno-reactivity) was “triggers proliferation”, the “immuno-reactivity of Ki-67 (proliferation marker)” value ([1]; osteoblasts where boric acid is applied) was “greater” and the cytoplasmic vacuoles [2, 4] was “begin to occur”. For the same compound, the “epithelioid structure of osteoblast cells” value [2, 4] was “preserve their epithelioid structures”, the intercellular vacuoles [2, 4] was “decrease” and the “augmentation of osteoblasts and protection of these cells from ageing” value ([2]; boric acid applied to the in-vitro model) was “favorable effects”.
